These results are taken from patent US12533361B2, “Use of polaprezinc in preparing drug for treating castration-resistant prostate cancer” (Jiangnan University, priority 2021, dated 2026).

For one assay, the system named is L-DTP (EPI) cells. Briefly: CCK8 survival of drug-resistant L-DTP (EPI) cells, single and combined drugs. It is filed as cell-based. As to conditions: drug-resistant L-DTP (EPI) cells produced by continuously adding EPI for 9 days, optimal concentration of Pola. The procedure: (§1) Furthermore, CCK8 is used and drugs are used in drug-resistant L-DTP cells in a single form and combined form separately.
(§2) After the cells adhered to walls, a series of Pola from high to low concentrations were prepared. A most optimal concentration of the Pola was found. […] Cl values of the L-DTP cells were calculated by Calcusyn software.

A further assay has as its system AR. Briefly: Immunohistochemistry of AR in prostate tissue sections (Example 4). It is filed as in vivo, mouse. As to conditions: 30 days administration after relapse, Enza 10 mg/Kg, Pola 20 mg/Kg, combined 10 + 20 mg/Kg, NC group 94. The text has this:
(§3) The mice were correspondingly gavaged. […] The mice were sacrificed and their prostate cancers were photographed, weighed and subjected to immunohistochemistry.

The subject of the next assay is PRDX5. Put plainly: Immunohistochemistry of PRDX5 in prostate tissue sections (Example 4). Format: in vivo, mouse. The settings on record: 30 days administration after relapse, Enza 10 mg/Kg, Pola 20 mg/Kg, combined 10 + 20 mg/Kg, NC group 61.7.
Description: as §3

The test system of assay [1] is mouse model of spontaneous prostate cancer with overexpression of C-MYC (Hi-Myc). Briefly: Hi-Myc mouse model of prostate cancer, prostate weight and HE staining (Example 4). Format: in vivo. The settings on record: for Average prostate weight of mice: 30 days administration after relapse caused by drug resistance, gavage once every three days, Enza 10 mg/Kg, Pola 20 mg/Kg, combined 10 + 20 mg/Kg, NC group 100.1 mg; for average prostate weight: 10 mg/Kg gavage once every three days.
Description: A mouse model of spontaneous prostate cancer with overexpression of C-MYC (Hi-Myc) was established. […] A part of the mice were sacrificed and their prostate cancers were photographed and weighed. […]. The remaining mice were continuously administered according to the above method for 30 days. […]. […] At this time, the mice were divided into different groups immediately to study effects of combined use of drugs.
as §3

Assay [2] has as its system mouse model of spontaneous prostate with overexpression of C-MYC (Hi-Myc). Briefly: Hi-Myc mouse model of prostate cancer, prostate weight (Example 5). Format: in vivo. The settings on record: for Average prostate weight of mice: 30 days administration after relapse, gavage once every three days, Enza 30 mg/Kg, Pola 30 mg/Kg, combined Enza 10 mg/Kg + Pola 20 mg/Kg, NC group 105.4 mg. The text has this:
A mouse model of spontaneous prostate with overexpression of C-MYC (Hi-Myc) was established. […] A part of the mice were sacrificed and their prostate cancers were photographed and weighed. […] The remaining mice were continuously administered according to the above method for 30 days. […] The mice were correspondingly gavaged. […] The mice were sacrificed and their prostate cancers were photographed, weighed and subjected to immunohistochemistry.

The test system of another assay is L-DTP (Enza) cells. Briefly: CCK8 survival of drug-resistant L-DTP (Enza) cells, single and combined drugs. It is filed as cell-based. The settings on record: drug-resistant L-DTP (Enza) cells produced by continuously adding Enza for 9 days, optimal concentration of Pola. The method, then:
as §1, §2

[3] abbreviates: 10 mg/Kg gavage once every three days for 30 days.

Consider `CC(C)(c1ccc(OCC(O)CO)cc1)c1ccc(OCC(O)CCl)cc1` (stereo not drawn) [EPI, EPI-001], for which the inhibition rate entry in the assay with L-DTP (EPI) cells is “no obvious inhibitory effect”.
With `NCCC(=O)[N-][C@@H](Cc1c[nH]cn1)C(=O)[O-].[Zn+2]` [Pola, polaprezinc], the “Expression amount of AR/%” value in the assay on AR stood at 70.4%. Besides, the “Expression amount of PRDX5/%” value with PRDX5 is recorded as 74.2%. In addition, the inhibition rate result with L-DTP (EPI) cells and in the assay on L-DTP (Enza) cells was “no obvious inhibition rate” each time. Moreover, the figures for the “Average prostate weight of mice” value in assay [1] and in assay [2] were 80.625 mg and 81.2 mg, respectively. In addition, the “effect on drug-resistant CRPC (prostate weight, in words)” value in assay [1] (30 days administration after relapse, compared with single use / between single groups) is reported as “does not have a significant effect”.
Take `CNC(=O)c1ccc(N2C(=S)N(c3ccc(C#N)c(C(F)(F)F)c3)C(=O)C2(C)C)cc1F` [Enza, enzalutamide]: in the assay with PRDX5, the “Expression amount of PRDX5/%” value was found to be 93.6%. The “prostate weight compared with the NC group” value in assay [1] (setting [3]) and in assay [2] (setting [3]) was “reduced by half” throughout. Moreover, the “Average prostate weight of mice” value worked out at 83.3 mg in assay [1] and 85.9 mg in assay [2]. The average prostate weight in assay [1] (after 30 days of continuous administration, NC group 85.3 mg) turned out to be 41.2 mg; in assay [1] (after 60 days of continuous administration, relapse, NC group 95.6 mg) it was 78.4 mg. For the same compound, the inhibition rate entry with L-DTP (Enza) cells is recorded as “no obvious inhibitory effect”.
